Measurements as given in patent US9814727B2, “Piperazine phenothiazine derivatives for treating spasticity” (UNIVERSITE D'AIX-MARSEILLE, priority 2014, dated 2017).

Test system: KCC2
Assay: Western blot of KCC2 in total cell lysate of HEK KCC2 cells
Format: cell-based
Conditions: 10 μM, 30 min of cell treatment, HEK KCC2 whole cell lysate
Description: Wild-type or KCC2-expressing Human Embryonic Kidney (HEK) 293 cells (provided by Prof. Eric Delpire Department of Anesthesiology, Vanderbilt University Medical Center, Nashville, Tenn.) were grown up to 80-90% confluence in DMEM/Ham's F-12 (1:1) (Life technologies, Carlsbad, Calif., USA) supplemented with 10% FBS (Life technologies), 50 units/mL penicillin, and 50 µg/mL streptomycin (Life technologies). KCC2-expressing clones were under puromycin selection (20 μg/ml, Life technologies).
Wild-type and KCC2-expressing HEK293 cells or NSC-34 were harvested and homogenised in lysis buffer (PBS containing 1% Igepal CA-630, 0.1% SDS, 10 mM sodium pyrophosphate, 10 mM NaF, 10 mM NaVO4, 10 mM iodoacetamide and cocktail protease inhibitors and centrifugated at 18000 g for 30 minutes at 4° C. Protein concentration in supernatants was determined using DC protein assay (Bio-rad). Same amounts of total proteins were separated in 6% or 7% SDS PAGE and transferred onto PVDF membrane. Once blocked in Tris Buffer Saline 0.05% Tween 5% non-fat dry milk, membranes were probes over night at 4° C. with KCC2 antibody (1/1000 dilution, Merck-Millipore, Billerica, Mass., USA), or anti-phospho-serine940 KCC2 (1/1000 dilution, PhosphoSolutions) or anti-Actin antibody (1/500 dilution, Sigma Aldrich). […] Signal intensity was measured with the image analysis software Image lab (Bio-Rad, Hercules, Calif., USA). […]

## CN1CCN(CCCN2c3ccccc3Sc3ccc(Cl)cc32)CC1 [compound 2, 2-chloro-10-[3-(4-methyl-1-piperazinyl)propyl]-10H-phenothiazine]
  phosphorylated KCC2 on serine 940: increased
  total KCC2 protein level (monomers+oligomers): increased
